Series [1] deals with CMT latently infected with HIV-1. As to the kind of experiment: HIV-1 latency reversal in latently infected central memory T cells (p24 staining, HIV-1 mRNA RT-PCR). The format is cell-based, human. To be noted: latently infected cells, pol RT-PCR. The text has this:
Flow cytometry. The following antibodies from Biolegend were used for flow cytometry: Pacific Blue-anti-mouse CD45 (1:100, 103126, clone 30-F11,) APC-anti-human CD45 (1:100, 304012, clone HI30), Pacific Blue-anti-human CD19 (1:100, 302232, clone HIB19), PE-anti-human CD4 (1:100, 317414, clone OKT4), APC/Fire-750-anti-human CD8 (1:100, 34474, clone SK1), FITC-anti-human CD56 (1:100, 392413, clone QA17A16), Pacific Blue-anti-human CD19 (1:100, 302232, clone HIB19), Pacific Blue-anti-human CD3 (1:100, 300329, clone HIT3a), PE/Cy7-anti-HLA-HLA-DR, DP, DQ (1:100, 361708, clone Tü139), PerCP/Cy5.5-anti-human CD11b (1:100, 301327, clone ICRF44), APC/Fire-750-anti-human CD163 (1:100, 333633, clone GHI/61), PE-anti-human CD123 (1:100, 306005, clone 6H6), Alexa Fluor 488 anti-human CD11c (1:100, 301618, clone 3.9), PerCP/Cy5.5-anti-human CD3 (1:100, 300328, clone HIT3a), PerCP/Cy5.5 anti-human CD123 (1:100, 306016, clone 6H6), FITC-anti-mouse CD45 (1:100, 103108, clone 30-F11), PE/Cy7 anti-human CD197 (CCR7) (1:100, 353226, clone G043H7), PE-anti-human CD45R0 (1:100, 304244, clone UCHL1), FITC-anti-human CD45RA (1:100, 304148, clone HI100) and Alexa Fluor 488-anti-CD68 (1:30, 333812, clone Y1/82A), PerCP/Cy5.5-anti-human CD19 (1:100, 302230, clone HIB19), PE-anti-human CD27 (1:100, 356406, clone M-T271) and Pacific Blue-anti-human IgD (1:100, 348224, clone IA6-2). PE-anti-human CD3 (1:100, 556612, clone SP34) and V50-anti-human CD4 (1:100, 560345, clone RPA-T4) were from BD Biosciences. The cells stained with indicated antibodies were analyzed using a BD LSR II flow cytometer (BD Biosciences). To detect HIV-1 p24, spleen cells from Hu-HSC mice were stimulated with 5 μg/ml PHA (Sigma) and 6 ng/ml IL-2 (Biolegend). The cells were stained for T cell markers, followed by fixation and permeabilization using the Cytofix/Cytoperm buffer (BD Bioscience) and intracellular staining with PE-conjugated anti-p24 (1:30, 6604667, clone KC57, Beckman Coulter). The cells were analyzed by flow cytometry using a BD LSR II flow cytometer (BD Bioscience) and FlowJo software (version 10.5.3, BD Bioscience).
T cell isolation and infection with HIV-1. Peripheral blood mononuclear cells (PBMCs) of anonymous healthy donors from the Gulf Coast Blood Center were used to purify CD4^+ T cells with anti-CD4 MACS beads (Miltenyi Biotec). CD3^+CD4^+CD45RA^+CD45RO^−CCR7^+ naïve T cells, CD3^+CD4^+CD45RA^−CD45RO^+CCR7+ central memory T cells (CMT) and CD3^+CD4^+CD45RA^−CD45RO^+CCR7^− effector memory T cells (EMT) were sorted using a BD FACSAria flow cytometer (BD Bioscience). Naive CD4^+ T cells were stimulated with 5 μg/ml PHA and 6 ng/ml IL-2 in RPMI complete medium for 2 days to generate activated CD4^+ T cells. Sorted T cell subsets or activated T cells were infected with HIV-1 CXCR4-tropic NL4-3 or CCRS-tropic AD8 (both virus clones were obtained from the NIH AIDS Reagent Program) at the indicated MOI for 2 h. The cells were washed with PBS and cultured in RPMI complete medium containing 30 nM CCL19 (Biolegend) and 0.3 ng/ml IL-2 (Biolegend) and for 4 days to establish latent HIV infection as described.
Naïve T cells, activated T cells, CMT or EMT with or without infection with HIV-1 (NL4-3, 1 MOI) were cultured for 4 days in the presence of 30 nM CCL19 and 0.3 ng/ml IL-2 for 4 days to establish latent HIV infection. The cells with or without HIV-1 infections were stimulated with 0.1 μM IDB (Ingenol-3,20-dibenzonate, ENZO Life Sciences) in the presence of 0.2 μM ABT-263 (Adooq Bioscience), 2 μM SAR405 (MedChemExpress) or 10 μM chloroquine (CQ, Sigma) as indicated for 48 h. The cells were then incubated with 1 μM FITC-DEVD-FMK (Biovision), followed by staining with APC-Annexin V (Biolegend) and intracellular staining with PE-anti-HIV p24. The cells were analyzed by flow cytometry. The percentage of cell death was calculated by the loss of live cells negative for annexin V and DEVD staining by comparing treated and untreated groups: (untreated—treated)/untreated x 100%. […]

The test system of a further series is HIV-1-infected T cells. As to the kind of experiment: Annexin V / DEVD-FITC / p24 cell death assay in T cells with or without HIV-1 infection. The format is cell-based, human. On the procedure:
Naïve T cells, activated T cells, CMT or EMT with or without infection with HIV-1 (NL4-3, 1 MOI) were cultured for 4 days in the presence of 30 nM CCL19 and 0.3 ng/ml IL-2 for 4 days to establish latent HIV infection. […] The cells were then incubated with 1 μM FITC-DEVD-FMK (Biovision), followed by staining with APC-Annexin V (Biolegend) and intracellular staining with PE-anti-HIV p24. The cells were analyzed by flow cytometry. The percentage of cell death was calculated by the loss of live cells negative for annexin V and DEVD staining by comparing treated and untreated groups: (untreated—treated)/untreated x 100%.

The source of these data is patent US20230011398A1, “COMBINATION THERAPY APPROACH TO ELIMINATE HIV INFECTIONS” (priority 2019, published 2023).

The structures appear in SMILES notation.

Take `CC1=C[C@]23C(=O)[C@@H](C=C(COC(=O)c4ccccc4)[C@@H](O)[C@]2(O)[C@H]1OC(=O)c1ccccc1)[C@H]1[C@@H](C[C@H]3C)C1(C)C` [IDB, ingenol 3,20-dibenzoate]: in series [1], the “latency reversal observed by expression of HIV-1 mRNA after stimulation” value is reported as “Latency reversal was also observed”. Moreover, in the series on HIV-1-infected T cells (0.1 μM IDB, 48 h), the “cell death in HIV-1-infected T cells (Annexin V, cleavage of DEVD)” value is listed as “induced cell death in HIV-1-infected T cells” and the “cell death in uninfected cells” value is “relatively resistant”. In addition, in the series on HIV-1-infected T cells (HIV-1-infected CMT, 100 nM IDB 24 h), the “caspase-3 activities measured by cleavage of DEVD” value is on record as “increased caspase-3 activities”. Besides, in the series on HIV-1-infected T cells (NL4-3 1 MOI, 100 nM IDB 24 h), the “cell death in HIV-1-infected CMT, Annexin V staining” value was “induced cell death”.
